Source: patent US12083130B2, “Combination hormone formulations and therapies” (Caren Pharmaceuticals, Inc., priority 2019, dated 2024)

Key:
Aβ levels = settings: mice, cyclic administration, high levels 10 days in a row every 30 days; cited from earlier work
hypogonadal men = settings: 12-year study, hypogonadal men who received T; […] for men who did not; cited from earlier work
[1] = test system: cortical rat neurons intoxicated with human AβO 1-42; test: Example 10: neuroprotection of cortical neurons intoxicated with human AβO 1-42; assay type: cell-based; settings: BDNF 50 ng/ml; human AβO 1-42 10 μM, 24 h
Description: This is a prophetic example. The 40 and 42 amino acid forms are the most abundant B-amyloid (Aβ) peptide forms found in AD brain senile plaques, as disclosed herein. However, the number of senile plaques in a particular region of the AD brain correlates poorly with the local extent of neuron death or synaptic loss, or with cognitive impairment (Sisodia et al., 1990). Studies have shown a robust correlation between the soluble human Aβ 1-42 oligomer (AβO) levels and the extent of synaptic loss and severity of cognitive impairment (Sakono et al., 2010). This example investigates the neuroprotective effect of the composition prepared as described in Example 2 on cortical neurons incubated for 24 hours in the presence of AβO, an in vitro model of AD (Callizot et al., 2013). Brain-derived neurotrophic factor (BDNF) is used as a positive control in this study.
Cortical rat neurons are cultured at +37° C. in a humidified air/CO2 (95/5) atmosphere. After 11 days of culture, cortical neurons are intoxicated with human AβO 1-42 at 10 μM for 24 hrs. […]
The total number of cortical neurons that survive after 24 h incubation are counted to determine the end point evaluation. […]

Which Aβ levels (Aβ levels) does the source give for `CC(=O)[C@H]1CC[C@H]2[C@@H]3CCC4=CC(=O)CC[C@]4(C)[C@H]3CC[C@]12C` [progesterone] here?
Its Aβ levels is “decreased Aβ levels”.

Which “rate of prostate cancer” value (hypogonadal men) does the source give for `C[C@]12CC[C@H]3[C@@H](CCC4=CC(=O)CC[C@@]43C)[C@@H]1CC[C@@H]2O` [T, testosterone] here?
The value was 2.7%.

B1: BDNF: Brain-derived neurotrophic factor, positive control (protein, UniProt P23560 19-247, looked up)
Neurotrophic factor BDNF …: APMKEANIRGQGGLAYPGVRTHGTLESVNGPKAGSRGLTSLADTFEHVIEELLDEDQKVRPNEENNKDADLYTSRVMLSSQVPLEPPLLFLLEEYKNYLDAANMSMRVRRHSDPARRGELSVCDSISEWVTAADKKTAVDMSGGTVTVLEKVPVSKGQLKQYFYETKCNPMGYTKEGCRGIDKRHWNSQCRTTQSYVRALTMDSKKRIGWRFIRIDTSCVCTLTIKRGR
For B1, which “cell death resulting from AβO” value [1] is on record?
Its value is “inhibits cell death resulting from AβO”.
